The source of these data is PubChem BioAssay AID463179 (Southern Research Specialized Biocontainment Screening …, 2010).

Test [1] in a line: PhoP promoter GFP reporter, Salmonella typhi, confirmatory inhibitors, fluorescence, 4 h (AID 463179). As to conditions: Salmonella Typhi PhoP-promoter GFP reporter, fluorescence, 4 h; at 150 µM (top of the series).
Test [2] relates to Salmonella Typhi PhoP-promoter GFP reporter, fluorescence, 4 h. Described as above.

Each structure is given as a SMILES string. The source made the active and inactive calls. No rule for the calls is given here.

Turning to `O=C1C2=C(Nc3ccccc3SC2c2cccc(Br)c2)c2ccccc21` (centres undefined), the inhibition in test [1] was -12.2% (inactive).
`Cc1ccc(C2Sc3ccccc3N=C3c4ccccc4CC32)cc1` (centres undefined): in test [2], the IC50 is 2.67 µM.
As for `O=C1C2=C(Nc3ccccc3SC2c2ccc(Cl)cc2)c2ccccc21` (centres undefined), the inhibition in test [1] is 18% (inactive).
For the molecule `Clc1ccc(C2Sc3ccccc3N=C3c4ccccc4CC32)cc1` (centres undefined), in test [2], the IC50 was 6.26 µM.
